Results reported in PubChem BioAssay AID248 (DTP/NCI, 2004).
Where “and” joins values, the source holds several entries; their conditions need not be identical. Equal entries are not always repeated. Toxic doses and inconclusive results are not listed. Cut-off read from the data, not from the text of the source: active = T/C of 150% or more; inactive = T/C below 125%.

Test system: L1210 leukemia ip in BDF1 mice, survival T/C
Assay: NCI In Vivo Anticancer Drug Screen. Data for tumor model L1210 Leukemia (intraperitoneal) in B6D2F1 (BDF1) mice
Conditions: endpoint: mean survival time, higher = longer survival
How it was run: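 Tumor was transplanted into mice, which were then dosed with test compound or vehicle alone. Survival was recorded for each group, and the treated figure was expressed relative to the control figure.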

[1] = dose: 25.0 mg/kg/injection, schedule: Q04DX003 (ip), vehicle: Klucel (hydroxypropylcellulose) (HPC)
[2] = dose: 50.0 mg/kg/injection, schedule: Q04DX003 (ip), vehicle: Klucel (hydroxypropylcellulose) (HPC)
[3] = dose: 100.0 mg/kg/injection, schedule: Q04DX003 (ip), vehicle: Klucel (hydroxypropylcellulose) (HPC)
[4] = dose: 100.0 mg/kg/injection, schedule: Q01DX009 (ip), vehicle: saline with Tween-80
[5] = dose: 100.0 mg/kg/injection, schedule: Q04DX003 (ip), vehicle: saline with Tween-80
[6] = dose: 200.0 mg/kg/injection, schedule: Q04DX003 (ip), vehicle: saline with Tween-80
[7] = dose: 400.0 mg/kg/injection, schedule: Q04DX003 (ip), vehicle: saline with Tween-80
[8] = dose: 100.0 mg/kg/injection, schedule: Q01DX001 (ip), vehicle: carboxymethylcellulose (CMC)
[9] = dose: 200.0 mg/kg/injection, schedule: Q01DX001 (ip), vehicle: carboxymethylcellulose (CMC)
[10] = dose: 400.0 mg/kg/injection, schedule: Q01DX001 (ip), vehicle: carboxymethylcellulose (CMC)
[11] = dose: 100.0 mg/kg/injection, schedule: Q01DX009 (ip), vehicle: saline
[12] = dose: 200.0 mg/kg/injection, schedule: Q01DX009 (ip), vehicle: saline
[13] = dose: 400.0 mg/kg/injection, schedule: Q01DX009 (ip), vehicle: saline

Measured: T/C

Cc1csc(NC(=O)C2C3CCC(O3)C2C(=O)O)n1 (stereo not given)
inactive: dose: 5.0 mg/kg/injection, schedule: Q01DX001 (ip), vehicle: carboxymethylcellulose (CMC) 95 % of control | dose: 10.0 mg/kg/injection, schedule: Q01DX001 (ip), vehicle: carboxymethylcellulose (CMC) 101 % of control

CC(=O)OC(OC(C)=O)c1ccc([N+](=O)[O-])o1
inactive: dose: 12.5 mg/kg/injection, schedule: Q04DX003 (ip), vehicle: Klucel (hydroxypropylcellulose) (HPC) 101 % of control | [1] 87 % of control | [2] 98 % of control | [3] 96 % of control

CC(C)(C)P(=O)(O)O
inactive: [4] 95 % of control

CC(=O)Oc1c2ccsc2cc2sccc12
inactive: dose: 100.0 mg/kg/injection, schedule: Q01DX001 (ip), vehicle: saline with Tween-80 96 % of control | dose: 200.0 mg/kg/injection, schedule: Q01DX001 (ip), vehicle: saline with Tween-80 94 % of control | dose: 400.0 mg/kg/injection, schedule: Q01DX001 (ip), vehicle: saline with Tween-80 94 % of control

O=S(=O)(O)c1ccc(Cl)cc1
inactive: [5] 96 % of control | [6] 104 % of control | [7] 106 % of control

C[n+]1ccccc1/C=C/c1cccc([N+](=O)[O-])c1
inactive: dose: 5.0 mg/kg/injection, schedule: Q04DX003 (ip), vehicle: saline with Tween-80 101 % of control | dose: 10.0 mg/kg/injection, schedule: Q04DX003 (ip), vehicle: saline with Tween-80 90 % of control | dose: 20.0 mg/kg/injection, schedule: Q04DX003 (ip), vehicle: saline with Tween-80 100 % of control

CN(CCOc1ccccc1O)CCOc1ccccc1O
inactive: [3] 105 % of control | dose: 200.0 mg/kg/injection, schedule: Q01DX009 (ip), vehicle: Klucel (hydroxypropylcellulose) (HPC) 101 % of control | dose: 200.0 mg/kg/injection, schedule: Q04DX003 (ip), vehicle: Klucel (hydroxypropylcellulose) (HPC) 106 % of control | dose: 400.0 mg/kg/injection, schedule: Q01DX009 (ip), vehicle: Klucel (hydroxypropylcellulose) (HPC) 86 % of control | dose: 400.0 mg/kg/injection, schedule: Q04DX003 (ip), vehicle: Klucel (hydroxypropylcellulose) (HPC) 101 % of control

Nc1ncnc(N)c1NC(=O)c1ccc(OCCCOc2ccccc2)c(Cl)c1
inactive: [8] 96 % of control | [9] 101 % of control | [10] 96 % of control

O=S(=O)(CC(Cl)c1ccccc1)c1ccccc1 (stereo not given)
inactive: dose: 100.0 mg/kg/injection, schedule: Q01DX001 (ip), vehicle: acetone 95 % of control | [11] 91 % of control | dose: 200.0 mg/kg/injection, schedule: Q01DX001 (ip), vehicle: acetone 98 % of control | [12] 94 % of control | dose: 400.0 mg/kg/injection, schedule: Q01DX001 (ip), vehicle: acetone 92 % of control | [13] 89 % of control

Cc1cccc(N2C(N)=NC(N)=NC2(C)C)c1
inactive: [1] 103 % of control | [2] 124 % of control | dose: 75.0 mg/kg/injection, schedule: Q01DX001 (ip), vehicle: saline 101 % of control

CCOC(=O)C(OCc1ccccc1)(C(=O)Cl)C(C)C (stereo not given)
inactive: dose: 6.25 mg/kg/injection, schedule: Q01DX009 (ip), vehicle: saline with Tween-80 98 % of control | dose: 6.25 mg/kg/injection, schedule: Q04DX003 (ip), vehicle: saline 93 % of control | dose: 12.5 mg/kg/injection, schedule: Q01DX009 (ip), vehicle: saline with Tween-80 100 % of control | dose: 12.5 mg/kg/injection, schedule: Q04DX003 (ip), vehicle: saline 97 % of control | dose: 25.0 mg/kg/injection, schedule: Q01DX009 (ip), vehicle: saline with Tween-80 98 % of control | dose: 25.0 mg/kg/injection, schedule: Q04DX003 (ip), vehicle: saline 92 % of control | dose: 50.0 mg/kg/injection, schedule: Q04DX003 (ip), vehicle: saline 103 % of control

CCOC(=O)N1C(C)C1C(C)C (stereo not given)
inactive: dose: 62.0 mg/kg/injection, schedule: Q04DX003 (ip), vehicle: carboxymethylcellulose (CMC) 97 % of control | dose: 125.0 mg/kg/injection, schedule: Q04DX003 (ip), vehicle: carboxymethylcellulose (CMC) 97 % of control | dose: 250.0 mg/kg/injection, schedule: Q04DX003 (ip), vehicle: carboxymethylcellulose (CMC) 94 % of control

Nc1ccc(C(=O)O)c(O)c1
inactive: dose: 37.88 mg/kg/injection, schedule: Q01DX Z (ip), vehicle: carboxymethylcellulose (CMC) 105 % of control | dose: 75.75 mg/kg/injection, schedule: Q01DX Z (ip), vehicle: carboxymethylcellulose (CMC) 96 % of control | [8] 97 % of control | [4] 104 % of control | [5] 96 % of control and 97 % of control | dose: 151.5 mg/kg/injection, schedule: Q01DX Z (ip), vehicle: carboxymethylcellulose (CMC) 96 % of control | [9] 97 % of control | dose: 200.0 mg/kg/injection, schedule: Q01DX009 (ip), vehicle: saline with Tween-80 97 % of control | [6] 95 % of control and 103 % of control | dose: 303.0 mg/kg/injection, schedule: Q01DX Z (ip), vehicle: carboxymethylcellulose (CMC) 95 % of control | [10] 89 % of control | dose: 400.0 mg/kg/injection, schedule: Q01DX009 (ip), vehicle: saline with Tween-80 95 % of control | [7] 95 % of control and 101 % of control

COP(=O)(OC)OC=C(Cl)Cl
inactive: dose: 25.0 mg/kg/injection, schedule: Q04DX002 (ip), vehicle: saline 94 % of control | dose: 50.0 mg/kg/injection, schedule: Q04DX002 (ip), vehicle: saline 105 % of control | dose: 100.0 mg/kg/injection, schedule: Q04DX002 (ip), vehicle: saline 98 % of control

Oc1ccc2c(ccc3ccc4ccccc4c32)c1
inactive: dose: 100.0 mg/kg/injection, schedule: Q01DX001 (ip), vehicle: alcohol 103 % of control | dose: 200.0 mg/kg/injection, schedule: Q01DX001 (ip), vehicle: alcohol 100 % of control | dose: 400.0 mg/kg/injection, schedule: Q01DX001 (ip), vehicle: alcohol 95 % of control

CCC([N+](=O)[O-])S(=O)(=O)c1ccc(C)cc1 (stereo not given)
inactive: dose: 100.0 mg/kg/injection, schedule: Q01DX001 (ip), vehicle: saline 98 % of control | [11] 98 % of control | dose: 100.0 mg/kg/injection, schedule: Q04DX003 (ip), vehicle: saline 102 % of control | dose: 200.0 mg/kg/injection, schedule: Q01DX001 (ip), vehicle: saline 95 % of control | [12] 94 % of control and 95 % of control | dose: 200.0 mg/kg/injection, schedule: Q04DX003 (ip), vehicle: saline 100 % of control | dose: 400.0 mg/kg/injection, schedule: Q01DX001 (ip), vehicle: saline 93 % of control | [13] 93 % of control and 103 % of control | dose: 400.0 mg/kg/injection, schedule: Q04DX003 (ip), vehicle: saline 94 % of control

O=C(Nc1c(Cl)cc2c(c1Cl)Cc1cc([N+](=O)[O-])ccc1-2)C(Cl)Cl
inactive: [8] 98 % of control | [9] 102 % of control | [10] 98 % of control

CCCNC(=O)Oc1ccc(Nc2ccccc2)cc1
inactive: dose: 100.0 mg/kg/injection, schedule: Q04DX002 (ip), vehicle: Klucel (hydroxypropylcellulose) (HPC) 118 % of control | dose: 200.0 mg/kg/injection, schedule: Q04DX002 (ip), vehicle: Klucel (hydroxypropylcellulose) (HPC) 103 % of control | dose: 400.0 mg/kg/injection, schedule: Q04DX002 (ip), vehicle: Klucel (hydroxypropylcellulose) (HPC) 107 % of control

CCCCN(CC)C(=S)S[Te](SC(=S)N(CC)CCCC)(SC(=S)N(CC)CCCC)SC(=S)N(CC)CCCC
inactive: [8] 104 % of control | [9] 101 % of control | [10] 89 % of control
